Laboratory results published in patent US20150291610A1, “C20' Urea Derivatives of Vinca Alkaloids” (THE SCRIPPS RESEARCH INSTITUTE, priority 2012, published 2015).
Read-outs that look alike come from different tables or passages of the source.

What was measured:
[1] = test system: L1210 (mouse lymphocytic leukemia) cells; conditions: reported in Leggans et al., Org. Lett. 2012; cited from earlier work
[2] = test system: HCT116/VM46 (vinblastine-resistant strain of HCT116, Pgp over-expression) cells; conditions: read-out: IC50 (nM) HCT116/VM46; reported in Leggans et al., Org. Lett. 2012; cited from earlier work
[3] = test system: HCT116 (human colorectal carcinoma) cells; conditions: cited from earlier work; for IC50: reported in Leggans et al., Org. Lett. 2012
[4] = test system: HCT116/VM46 (vinblastine-resistant strain of HCT116, Pgp over-expression) cells; assay: Cell growth inhibition assay, HCT116/VM46
Experimental: (§1) A population of cells (>1×10^6 cells/mL as determined with a hemocytometer) was diluted with an appropriate amount of Dulbecco-modified Eagle Medium (DMEM, Gibco) containing 10% fetal bovine serum (FBS, Gibco) to a final concentration of 30,000 cells/mL.
(§2) To each well of a 96-well plate (Corning Costar), 100 μL of the cell-media solution was added with a multichannel pipette. The cultures were incubated at 37° C. in an atmosphere of 5% CO2 and 95% humidified air for 24 hours. The test compounds were added to the plate as follows: test substances were diluted in DMSO to a concentration of 1 mM and 10-fold serial dilutions were performed on a separate 96-well plate. Fresh culture medium (100 μL) was added to each well of cells to constitute 200 μL of medium per well followed by 2 μL of each test agent. Compounds were tested in duplicate (n=2-8 times) at six concentrations between 0-1,000 nM or 0-10,000 nM. Following addition, cultures were incubated for an additional 72 hours.
(§3) The plates were incubated at 37° C. for either 5 minutes (L1210) or 15 minutes (HCT116 and HCT116/VM46).

[5] = test system: HCT116 (human colorectal carcinoma) cells; assay: Cell growth inhibition assay, HCT116; assay type: cell-based
Experimental: as §1, §2, §3

[6] = test system: L1210 (mouse lymphocytic leukemia) cells; assay: Cell growth inhibition assay, L1210; assay type: cell-based; conditions: L1210 murine leukemia cell line; avg of 4-16 determinations
Experimental: as §1, §2, §3

porcine tubulin = target: T1, porcine tubulin (Sus scrofa, UniProt P02550+P02554); assay type: binding; conditions: for tubulin binding affinity compared with vinblastine: in words
T1 construct: purified porcine tubulin; purchased Cytoskeleton, Inc
T1 sequence (P02550 whole entry): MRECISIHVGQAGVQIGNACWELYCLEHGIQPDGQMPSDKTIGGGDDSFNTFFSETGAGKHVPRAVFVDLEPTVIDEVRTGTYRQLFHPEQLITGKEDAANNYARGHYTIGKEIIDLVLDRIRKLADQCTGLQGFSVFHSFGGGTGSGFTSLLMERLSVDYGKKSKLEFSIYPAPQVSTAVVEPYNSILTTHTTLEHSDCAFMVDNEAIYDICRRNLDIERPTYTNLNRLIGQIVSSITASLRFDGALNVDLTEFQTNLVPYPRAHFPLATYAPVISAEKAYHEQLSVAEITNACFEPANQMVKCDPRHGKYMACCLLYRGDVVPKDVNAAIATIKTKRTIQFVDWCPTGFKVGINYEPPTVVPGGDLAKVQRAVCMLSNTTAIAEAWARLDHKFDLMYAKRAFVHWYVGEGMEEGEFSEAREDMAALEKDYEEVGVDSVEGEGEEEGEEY
T1 sequence (P02554 whole entry): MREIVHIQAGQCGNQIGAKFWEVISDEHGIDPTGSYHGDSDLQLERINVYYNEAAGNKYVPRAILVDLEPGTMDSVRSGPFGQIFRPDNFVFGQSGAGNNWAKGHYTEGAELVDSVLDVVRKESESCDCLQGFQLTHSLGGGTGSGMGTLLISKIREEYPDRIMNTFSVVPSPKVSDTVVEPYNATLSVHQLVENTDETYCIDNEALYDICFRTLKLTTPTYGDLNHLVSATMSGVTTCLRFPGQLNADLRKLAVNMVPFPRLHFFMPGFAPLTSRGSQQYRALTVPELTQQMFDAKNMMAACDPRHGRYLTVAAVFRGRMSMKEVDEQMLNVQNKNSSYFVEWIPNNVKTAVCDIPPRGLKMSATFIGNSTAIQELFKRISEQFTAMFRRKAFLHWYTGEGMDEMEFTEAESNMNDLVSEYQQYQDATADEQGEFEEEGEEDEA
From the text: [Owellen et al., Biochem. Pharmacol. 1977 26:1213-1219.] […] Millipore Steriflip® filter units were used to wash the filter paper with buffer under mild suction.

[7] = test system: PA-1 (Ovary, overexpression of AIB1); assay: 15-cell line panel: PA-1; assay type: cell-based, human; conditions: independent laboratory panel
[8] = test system: HCC1143 (Breast, triple negative); assay: 15-cell line panel: HCC1143; assay type: cell-based, human; conditions: independent laboratory panel
[9] = test system: HCT116/VM46 (Colon, vinblastine resistant); assay: 15-cell line panel: HCT116/VM46; assay type: cell-based, human; conditions: independent laboratory panel; > = highest concentration tested
[10] = test system: MCF-7 (Breast, overexpression of her2/neu); assay: 15-cell line panel: MCF-7; assay type: cell-based, human; conditions: independent laboratory panel; > = highest concentration tested
[11] = test system: SW403 (Colon, KRAS^G12V mutation); assay: 15-cell line panel: SW403; assay type: cell-based, human; conditions: independent laboratory panel
NCI-H520 (Lung) = assay: 15-cell line panel: NCI-H520; assay type: cell-based, human; conditions: independent laboratory panel
LNCaP-FGC (Prostate) = assay: 15-cell line panel: LNCaP-FGC; assay type: cell-based, human; conditions: independent laboratory panel; read-out: IC50 (nM) LNCaP-FGC
[12] = test system: HCC70 (Breast, overexpression of p53); assay: 15-cell line panel: HCC70; assay type: cell-based, human; conditions: independent laboratory panel
[13] = test system: T47D (Breast, mutant p53); assay: 15-cell line panel: T47D; assay type: cell-based, human; conditions: independent laboratory panel
[14] = test system: ZR-75-1 (Breast, overexpression of her2); assay: 15-cell line panel: ZR-75-1; assay type: cell-based, human; conditions: independent laboratory panel
[15] = test system: AU565 (Breast, overexpression of her2/neu); assay: 15-cell line panel, independent laboratory: AU565; assay type: cell-based, human
[16] = test system: LS174T (Colon, high levels of MUC2 mRNA); assay: 15-cell line panel: LS174T; assay type: cell-based, human; conditions: independent laboratory panel
[17] = test system: MDA-MB-468 (Breast, triple negative, amplified EGFR); assay: 15-cell line panel: MDA-MB-468; assay type: cell-based, human; conditions: independent laboratory panel
[18] = test system: KPL4 (Breast, overexpression of erbB2); assay: 15-cell line panel: KPL4; assay type: cell-based, human; conditions: independent laboratory panel
[19] = read-out: IC50 (nM) HCT116/VM46, resistant human colon cancer cell line, Pgp over-expression
[20] = HCT116 human colon cancer cell line, avg of 4-16 determinations, read-out: IC50 (nM) HCT116

Row | Compound | IC50 [1] [nM] | IC50 [2] [nM] | IC50 [3] [nM] | also measured
1 | CCC1(NC(=O)NC(=O)C(Cl)(Cl)Cl)CC2CN(CCc3c([nH]c4ccccc34)C(C(=O)OC)(c3cc4c(cc3OC)N(C)C3C(O)(C(=O)OC)C(OC(C)=O)C5(CC)C=CCN6CCC43C65)C2)C1 (stereo not shown) [NHCONHCOCCl3] | 45 | 1600 | 6 | 
2 | CCC1CC2CN(CCc3c([nH]c4ccccc34)C(C(=O)OC)(c3cc4c(cc3OC)N(C)C3C(O)(C(=O)OC)C(OC(C)=O)C5(CC)C=CCN6CCC43C65)C2)C1 (stereo not shown) [Compound 3, 20′-deoxyvinblastine] | 50 | 600 | 60 | 
3 | CC[C@]1(NC(N)=S)C[C@@H]2CN(CCc3c([nH]c4ccccc34)[C@@](C(=O)OC)(c3cc4c(cc3OC)N(C)[C@H]3[C@@](O)(C(=O)OC)[C@H](OC(C)=O)[C@]5(CC)C=CCN6CC[C@]43[C@@H]65)C2)C1 [Compound 12] | 55 | 2000 | 7.7 | IC50 [4, 19]: 2000 nM; IC50 [5, 20]: 7.7 nM
4 | CCC1(NC(=O)C(F)(F)F)CC2CN(CCc3c([nH]c4ccccc34)C(C(=O)OC)(c3cc4c(cc3OC)N(C)C3C(O)(C(=O)OC)C(OC(C)=O)C5(CC)C=CCN6CCC43C65)C2)C1 (stereo not shown) [NHCOCF3] | 660 | 8100 | 690 | 
5 | CC[C@]1(N)C[C@H]2CN(CCc3c([nH]c4ccccc34)[C@@](C(=O)OC)(c3cc4c(cc3OC)N(C)[C@H]3[C@@](O)(C(=O)OC)[C@H](OC(C)=O)[C@]5(CC)C=CCN6CC[C@]43[C@@H]65)C2)C1 [Compound 7, 20′-aminovinblastine] | 640 | > 10000 | 600 | IC50 [4, 19]: > 10000 nM; IC50 [5, 20]: 600 nM
6 | CCC1(N=[N+]=[N-])CC2CN(CCc3c([nH]c4ccccc34)C(C(=O)OC)(c3cc4c(cc3OC)N(C)C3C(O)(C(=O)OC)C(OC(C)=O)C5(CC)C=CCN6CCC43C65)C2)C1 (stereo not shown) [Compound N3] | 670 | 5500 | 690 | 
7 | CC[C@]1(O)C[C@@H]2CN(CCc3c([nH]c4ccc(F)cc34)[C@@](C(=O)OC)(c3cc4c(cc3OC)N(C)[C@H]3[C@@](O)(C(=O)OC)[C@H](OC(C)=O)[C@]5(CC)C=CCN6CC[C@]43[C@@H]65)C2)C1 [Compound 48, reference compound] |  |  |  | IC50 [4, 19]: 80 nM; IC50 [5, 20]: 0.8 nM; fold improvement in activity over vinblastine ([3]; Gotoh et al., ACS Med. Chem. Lett. 2011): 8 fold
8 | CCC1(NC(=O)N(C)C)CC2CN(CCc3c([nH]c4ccccc34)C(C(=O)OC)(c3cc4c(cc3OC)N(C)C3C(O)(C(=O)OC)C(OC(C)=O)C5(CC)C=CCN6CCC43C65)C2)C1 (stereo not shown) [Compound 39] |  |  |  | IC50 [6]: 5.9 nM; activity difference between sensitive HCT116 and vinblastine-resistant HCT116/VM46 ([4]; HCT116/VM46 vs HCT116): 10 fold; IC50 [4, 19]: 80 nM; IC50 [5, 20]: 2.8 nM; fold more potent than vinblastine, HCT116 ([5]; relative to vinblastine): 3 fold; % ^3H-vinblastine remaining bound (porcine tubulin): 45.1 ± 3.5%; tubulin binding affinity compared with vinblastine (porcine tubulin): slightly better affinity than vinblastine
9 | CCC1(NC(=O)OC)CC2CN(CCc3c([nH]c4ccccc34)C(C(=O)OC)(c3cc4c(cc3OC)N(C)C3C(O)(C(=O)OC)C(OC(C)=O)C5(CC)C=CCN6CCC43C65)C2)C1 (stereo not shown) [Compound 10] | 50 | 2600 | 75 | 
10 | CC1(C)CCCC(C)(C)N1[O] [TEMPO] | 4000 | 5600 | 3800 | 
11 | CC[C@]1(NC(N)=O)C[C@@H]2CN(CCc3c([nH]c4ccccc34)[C@@](C(=O)OC)(c3cc4c(cc3OC)N(C)[C@H]3[C@@](O)(C(=O)OC)[C@H](OC(C)=O)[C@]5(CC)C=CCN6CC[C@]43[C@@H]65)C2)C1 [Compound 11, reference compound] | 40 | 4400 | 7.5 | IC50 [6]: 40 nM; IC50 [4]: 4400 nM; IC50 [5, 20]: 7.5 nM
12 | CC[C@]1(O)C[C@@H]2CN(CCc3c([nH]c4ccccc34)[C@@](C(=O)OC)(c3cc4c(cc3OC)N(C)[C@H]3[C@@](O)(C(=O)OC)[C@H](OC(C)=O)[C@]5(CC)C=CCN6CC[C@]43[C@@H]65)C2)C1 [Vinblastine (1), Vinblastine, reference compound] | 6 | 600 |  | IC50 [7]: 4.6 nM; IC50 [8]: 3.8 nM; IC50 [6]: 6 nM; IC50 [9]: > 110 nM; IC50 [10]: > 110 nM; IC50 [11]: 7.9 nM; IC50 (NCI-H520 (Lung)): 4.5 nM; IC50 (LNCaP-FGC (Prostate)): 5.1 nM; IC50 [4, 19]: 600 nM; IC50 [12]: 3.5 nM; IC50 [13]: 5 nM; % ^3H-vinblastine remaining bound (porcine tubulin): 50.0%; IC50 [14]: 8 nM; IC50 [15]: 4 nM; IC50 [16]: 19.6 nM; IC50 [17]: 4.6 nM; IC50 [18]: 2.9 nM
13 | CC[C@]1(N=C=S)C[C@@H]2CN(CCc3c([nH]c4ccccc34)[C@@](C(=O)OC)(c3cc4c(cc3OC)N(C)[C@H]3[C@@](O)(C(=O)OC)[C@H](OC(C)=O)[C@]5(CC)C=CCN6CC[C@]43[C@@H]65)C2)C1 [Compound 5, 20′-isothiocyano-vinblastine] | 590 | 7000 | 530 | 
14 | CCC1(NC(=O)Nc2ccc(-c3ccccc3)cc2)C[C@H]2CN(CCc3c([nH]c4ccccc34)[C@@](C(=O)OC)(c3cc4c(cc3OC)N(C)[C@H]3C(O)(C(=O)OC)[C@H](OC(C)=O)[C@]5(CC)C=CCN6CC[C@]43[C@@H]65)C2)C1 (stereo partly shown) [Compound 35] |  |  |  | IC50 ([4]; Homo sapiens, HCT-116/VM46, read-out: IC50 (nM) HCT116/VM46): 470 nM; IC50 ([5]; Homo sapiens, HCT-116, read-out: IC50 (nM) HCT116): 6.9 nM; tubulin binding affinity compared with vinblastine (porcine tubulin): affinity matching or even slightly exceeding that of vinblastine; % ^3H-vinblastine remaining bound (porcine tubulin; ligand vs [^3H]VBL (1:1), normalized to VLB + [^3H]VLB = 50.0%): 48.5 ± 6.9%
15 | CCC1(NC=O)CC2CN(CCc3c([nH]c4ccccc34)C(C(=O)OC)(c3cc4c(cc3OC)N(C)C3C(O)(C(=O)OC)C(OC(C)=O)C5(CC)C=CCN6CCC43C65)C2)C1 (stereo not shown) [NHCHO] | 65 | 6500 | 85 | 
16 | CCC1(NC(C)=O)CC2CN(CCc3c([nH]c4ccccc34)C(C(=O)OC)(c3cc4c(cc3OC)N(C)C3C(O)(C(=O)OC)C(OC(C)=O)C5(CC)C=CCN6CCC43C65)C2)C1 (stereo not shown) [Compound 9] | 65 | 7500 | 90 | 
17 | CCC1(SC#N)CC2CN(CCc3c([nH]c4ccccc34)C(C(=O)OC)(c3cc4c(cc3OC)N(C)C3C(O)(C(=O)OC)C(OC(C)=O)C5(CC)C=CCN6CCC43C65)C2)C1 (stereo not shown) [SCN] | 560 | 2900 | 550 | 
